Experimental data: patent publication US20110086759A1, “CHEMICAL COMPOUNDS” (SYNGENTA CROP PROTECTION, INC., priority 2007, published 2011)

Legend:
Assay type in all cases: in vivo
Solanum nigrum (SOLNI) [1] = experiment: Post-emergence biological efficacy, glasshouse pot test; settings: 312 h, evaluated after 13 days (100=total damage; 0=no damage), read-out: Percentage damage caused to weed species, SOLNI; for pest or weed control at 1000 g/ha: post-emergence, 1,000 g/ha
In short: (§1)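 Plants were sown in standard soil and grown 8 days in a glasshouse (24/16° C. day/night, 14 hours light, 65% humidity), then sprayed post-emergence at 1000 or 250 g/ha from acetone/water (50:50) with 0.5% Tween 20. Damage was scored visually after 13 days (0 = none, 100 = total).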

[2] = system: Alopecurus myosuroides (ALOMY); experiment: as above; settings: 312 h, evaluated after 13 days (100=total damage; 0=no damage), read-out: Percentage damage caused to weed species, ALOMY; for pest or weed control at 1000 g/ha: post-emergence, 1,000 g/ha
In short: as §1

[3] = system: Ipomea hederaceae (IPOHE); experiment: as above; settings: Ipomoea hederacea, 312 h, evaluated after 13 days (100=total damage; 0=no damage), read-out: Percentage damage caused to weed species, IPOHE; for pest or weed control at 1000 g/ha: post-emergence, 1,000 g/ha
In short: as §1

[4] = system: Amaranthus retoflexus (AMARE); experiment: as above; settings: Amaranthus retroflexus, 312 h, evaluated after 13 days (100=total damage; 0=no damage), read-out: Percentage damage caused to weed species, AMARE; for pest or weed control at 1000 g/ha: post-emergence, 1,000 g/ha
In short: as §1

Setaria faberi (SETFA) [5] = experiment: as above; settings: 312 h, evaluated after 13 days (100=total damage; 0=no damage), read-out: Percentage damage caused to weed species, SETFA; for pest or weed control at 1000 g/ha: post-emergence, 1,000 g/ha
In short: as §1

[6] = system: Echinochloa crus-galli (ECHCG); experiment: as above; settings: 312 h, evaluated after 13 days (100=total damage; 0=no damage), read-out: Percentage damage caused to weed species, ECHCG; for pest or weed control at 1000 g/ha: post-emergence, 1,000 g/ha
In short: as §1

Solanum nigrum (SOLNI) [7] = experiment: Pre-emergence biological efficacy, glasshouse pot test; settings: 312 h, evaluated after 13 days (100=total damage; 0=no damage), read-out: Percentage damage SOLNI; for pest or weed control at 1000 g/ha: pre-emergence, 1,000 g/ha
In short: (§2)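 Seeds sown in standard soil in pots, held one day in glasshouse (24/16 °C day/night, 14 h light, 65% humidity), then sprayed with aqueous solution from acetone/water (50:50) formulation with 0.5% Tween 20 at 1000 or 250 g/ha. Damage scored after 13 days (0 = none, 100 = total).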

[8] = system: Alopecurus myosuroides (ALOMY); experiment: as above; settings: 312 h, evaluated after 13 days (100=total damage; 0=no damage), read-out: Percentage damage ALOMY; for pest or weed control at 1000 g/ha: pre-emergence, 1,000 g/ha
In short: as §2

[9] = system: Ipomea hederaceae (IPOHE); experiment: as above; settings: Ipomoea hederacea, 312 h, evaluated after 13 days (100=total damage; 0=no damage), read-out: Percentage damage IPOHE; for pest or weed control at 1000 g/ha: pre-emergence, 1,000 g/ha
In short: as §2

[10] = system: Amaranthus retoflexus (AMARE); experiment: as above; settings: Amaranthus retroflexus, 312 h, evaluated after 13 days (100=total damage; 0=no damage), read-out: Percentage damage AMARE; for pest or weed control at 1000 g/ha: pre-emergence, 1,000 g/ha
In short: as §2

Setaria faberi (SETFA) [11] = experiment: as above; settings: 312 h, evaluated after 13 days (100=total damage; 0=no damage), read-out: Percentage damage SETFA; for pest or weed control at 1000 g/ha: pre-emergence, 1,000 g/ha
In short: as §2

[12] = system: Echinochloa crus-galli (ECHCG); experiment: as above; settings: 312 h, evaluated after 13 days (100=total damage; 0=no damage), read-out: Percentage damage ECHCG; for pest or weed control at 1000 g/ha: pre-emergence, 1,000 g/ha
In short: as §2

| SMILES | pest or weed control at 1000 g/ha (Solanum nigrum (SOLNI) [1]) | pest or weed control at 1000 g/ha [2] | pest or weed control at 1000 g/ha [3] | pest or weed control at 1000 g/ha [4] | pest or weed control at 1000 g/ha (Setaria faberi (SETFA) [5]) | pest or weed control at 1000 g/ha [6] | pest or weed control at 1000 g/ha (Solanum nigrum (SOLNI) [7]) | pest or weed control at 1000 g/ha [8] | pest or weed control at 1000 g/ha [9] | pest or weed control at 1000 g/ha [10] | pest or weed control at 1000 g/ha (Setaria faberi (SETFA) [11]) | pest or weed control at 1000 g/ha [12] | also measured |
| --- | --- | --- | --- | --- | --- | --- | --- | --- | --- | --- | --- | --- | --- |
| COC(=O)c1nc(C2CC2)nc(NC(C)c2cccc(C(F)(F)F)c2)c1Cl (stereo not drawn) [Compound 4-179, 5-Chloro-2-cyclopropyl-6-methoxycarbonyl-4-[1-(3-trifluoro-methylphenyl)ethyl-amino]pyrimidine] | – | – | – | – | – | – | – | – | – | – | – | – | pest or weed control at 250 g/ha (Solanum nigrum (SOLNI) [1]; post-emergence, 250 g/ha): 80%; pest or weed control at 250 g/ha ([2]; post-emergence, 250 g/ha): 30%; pest or weed control at 250 g/ha ([3]; post-emergence, 250 g/ha): 60%; pest or weed control at 250 g/ha ([4]; post-emergence, 250 g/ha): 70%; pest or weed control at 250 g/ha (Setaria faberi (SETFA) [5]; post-emergence, 250 g/ha): 50%; pest or weed control at 250 g/ha ([6]; post-emergence, 250 g/ha): 40%; pest or weed control at 250 g/ha (Solanum nigrum (SOLNI) [7]; pre-emergence, 250 g/ha): 0%; pest or weed control at 250 g/ha ([8]; pre-emergence, 250 g/ha): 0%; pest or weed control at 250 g/ha ([9]; pre-emergence, 250 g/ha): 0%; pest or weed control at 250 g/ha ([10]; pre-emergence, 250 g/ha): 50%; pest or weed control at 250 g/ha (Setaria faberi (SETFA) [11]; pre-emergence, 250 g/ha): 0%; pest or weed control at 250 g/ha ([12]; pre-emergence, 250 g/ha): 0% |
| COC(=O)c1nc(C2CC2)nc(NC(C)c2ccc(C)cc2C)c1Cl (stereo not drawn) [Compound 4-183, 5-Chloro-2-cyclopropyl-4-[1-(2,4-dimethyl-phenyl)ethylamino]-6-methoxycarbonyl-pyrimidine] | 40% | 10% | 60% | 70% | 20% | 10% | 0% | 0% | 20% | 30% | 0% | 0% | – |
| COC(=O)c1nc(C2CC2)nc(NC(C)(C)c2ccccc2)c1Cl [Compound 4-189, 5-Chloro-2-cyclopropyl-6-methoxycarbonyl-4-(1-methyl-1-phenyl-ethylamino)-pyrimidine] | 90% | 20% | 100% | 100% | 50% | 0% | 50% | 20% | 40% | 60% | 0% | 0% | – |
| CCC(Nc1nc(C2CC2)nc(C(=O)OC)c1Cl)c1ccccc1 (stereo not drawn) [Compound 4-194, 5-Chloro-2-cyclopropyl-6-methoxycarbonyl-4-(1-phenylpropyl-amino)pyrimidine] | 100% | 10% | 100% | 100% | 80% | 60% | 60% | 10% | 90% | 100% | 10% | 20% | – |
| C=CC(Nc1nc(C2CC2)nc(C(=O)OC)c1Cl)c1ccccc1 (stereo not drawn) [Compound 4-197, 5-Chloro-2-cyclopropyl-6-methoxycarbonyl-4-(1-phenylprop-2-en-1-yl-amino)-pyrimidine] | 90% | 40% | 100% | 100% | 80% | 70% | 90% | 20% | 100% | 90% | 20% | 40% | – |
| C=CCC(Nc1nc(C2CC2)nc(C(=O)OC)c1Cl)c1ccc(Cl)cc1 (stereo not drawn) [Compound 4-198, 5-Chloro-4-[1-(4-chlorophenyl)but-3-en-1-yl-amino]-2-cyclopropyl-6-methoxycarbonyl-pyrimidine] | 30% | 20% | 60% | 40% | 40% | 0% | 20% | 0% | 70% | 30% | 0% | 0% | – |
| C=CCC(Nc1nc(C2CC2)nc(C(=O)OC)c1Cl)c1ccccn1 (stereo not drawn) [Compound 4-199, 5-Chloro-2-cyclopropyl-6-methoxycarbonyl-4-[1-(pyrid-2-yl)-but-3-enylamino]-pyrimidine] | 60% | 0% | 80% | 50% | 0% | 0% | 0% | 0% | 40% | 0% | 0% | 0% | – |
| COC(=O)c1nc(C2CC2)nc(NC(c2ccc(Cl)cc2)C2CC2)c1Cl (stereo not drawn) [Compound 4-200, 5-Chloro-4-[1-(4-chlorophenyl)-1-(cyclopropyl)methyl-amino]-2-cyclopropyl-6-methoxycarbonyl-pyrimidine] | 80% | 20% | 90% | 100% | 40% | 20% | 0% | 0% | 50% | 20% | 0% | 0% | – |
| COC(=O)c1nc(C2CC2)nc(NC(CO)C2CCOC2)c1Cl (stereo not drawn) [Compound 4-201, 5-Chloro-2-cyclopropyl-4-(2-hydroxy-1-tetrahydrofuran-3-yl-ethylamino)-6-methoxycarbonyl-pyrimidine] | 90% | 10% | 60% | 100% | 20% | 10% | 100% | 0% | 100% | 100% | 10% | 20% | – |
